Results as given in patent US8952024B2, “Herbicidal pyrimidone derivatives” (E I du Pont de Nemours and Company, priority 2009, dated 2015).

Experiments:
Assay type in all cases: in vivo
[1] = tested on: barnyardgrass (Echinochloa crus-galli); experiment: Test A pre-/postemergence plant response
In short: (§1)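 Both pre- and postemergence treatments are applied simultaneously, using chemicals formulated in a non-phytotoxic solvent mixture with surfactant. Postemergence plants are 2–10 cm high with one to two leaves. After approximately ten days in a greenhouse, injury is scored visually from 0 (none) to 100 (complete control) relative to untreated plants.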

corn (Zea mays) = experiment: Test A pre-/postemergence plant response
In short: as §1

[2] = tested on: giant foxtail (Setaria faberii); experiment: Test A pre-/postemergence plant response
In short: as §1

[3] = tested on: large crabgrass (Digitaria sanguinalis); experiment: Test A pre-/postemergence plant response
In short: as §1

[4] = tested on: morningglory (Ipomoea spp.); experiment: Test A pre-/postemergence plant response
In short: as §1

[5] = tested on: pigweed (Amaranthus retroflexus); experiment: Test A pre-/postemergence plant response
In short: as §1

[6] = tested on: velvetleaf (Abutilon theophrasti); experiment: Test A pre-/postemergence plant response
In short: as §1

[7] = tested on: wheat (Triticum aestivum); experiment: Test A pre-/postemergence plant response
In short: as §1

[8] = tested on: barnyardgrass (Echinochloa crus-galli); experiment: Test B flooded paddy test; conditions: for Plant response rating, Flood, Barnyardgrass: 250 g ai/ha, flooded paddy test, visual rating on 0 to 100 scale (0 no effect, 100 complete control) after 13 to 15 days; for Plant response rating, Barnyardgrass: Flood (flooded paddy test), 13 to 15 days
In short: (§2)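 Greenhouse-held for 13 to 15 days, treated pots were compared visually with controls and scored 0–100 (0, no effect). Treatment had been made into paddy water kept at 3 cm above the soil, with plants at the 2-leaf stage.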

[9] = tested on: ducksalad (Heteranthera limosa); experiment: Test B flooded paddy test; conditions: for Plant response rating, Flood, Ducksalad: 250 g ai/ha, flooded paddy test, visual rating on 0 to 100 scale (0 no effect, 100 complete control) after 13 to 15 days; for Plant response rating, Ducksalad: Flood (flooded paddy test), 13 to 15 days
In short: as §2

rice (Oryza sativa) = experiment: Test B flooded paddy test; conditions: for Plant response rating, Flood, Rice: 250 g ai/ha, flooded paddy test, visual rating on 0 to 100 scale (0 no effect, 100 complete control) after 13 to 15 days; for Plant response rating, Rice: Flood (flooded paddy test), 13 to 15 days
In short: as §2

[10] = tested on: umbrella sedge (Cyperus difformis); experiment: Test B flooded paddy test; conditions: for Plant response rating, Flood, Sedge, Umbrella: 250 g ai/ha, flooded paddy test, visual rating on 0 to 100 scale (0 no effect, 100 complete control) after 13 to 15 days; for Plant response rating, Sedge, Umbrella: Flood (flooded paddy test), 13 to 15 days
In short: as §2

[11] = Postemergence, 125 g ai/ha, 0 to 100 scale where 0 is no effect and 100 is complete control
[12] = Postemergence, 500 g ai/ha, 0 to 100 scale, 0 = no effect, 100 = complete control, approx. ten days
[13] = Preemergence, 125 g ai/ha, 0 to 100 scale, 0 = no effect, 100 = complete control
[14] = Preemergence, 500 g ai/ha, visual injury, 0 to 100 scale (0 no effect, 100 complete control), approx. ten days
[15] = 62 g ai/ha, scale of 0 to 100 where 0 is no effect and 100 is complete control
[16] = 125 g ai/ha, scale 0 to 100, 0 is no effect, 100 is complete control
[17] = Flood, 31 g ai/ha, scale 0 to 100 (0 no effect, 100 complete control)
[18] = Postemergence, 125 g ai/ha, visual injury, 0 to 100 scale (0 no effect, 100 complete control), approx. ten days
[19] = 31 g ai/ha, scale of 0 to 100 where 0 is no effect and 100 is complete control

With `CCCc1ncc(C(=O)C2=C(O)CCCC2=O)c(=O)n1Cc1ccc(OC)c(OC)c1` [Compound 84] the “Plant response rating, Barnyardgrass” value [1, 11] was 0, the “Plant response rating, Barnyardgrass” value [1, 12] was 10 and the “Plant response rating, Barnyardgrass” value [1, 13] was 0. For the same compound, the “Plant response rating, Barnyardgrass” value [1, 14] was 0, the “Plant response rating, Corn” value (corn (Zea mays); [11]) was 0 and the “Plant response rating, Corn” value (corn (Zea mays); [12]) was 20. The “Plant response rating, Corn” value (corn (Zea mays); [13]) was 0, the “Plant response rating, Corn” value (corn (Zea mays); [14]) was 0 and the “Plant response rating, Foxtail, Giant” value [2, 11] was 0. For the same compound, the “Plant response rating, Foxtail, Giant” value [2, 12] was 0, the “Plant response rating, Foxtail, Giant” value [2, 13] was 0 and the “Plant response rating, Foxtail, Giant” value [2, 14] was 0. For the same compound, the “Plant response rating, Crabgrass, Large” value [3, 11] was 0, the “Plant response rating, Crabgrass, Large” value [3, 12] was 10 and the “Plant response rating, Crabgrass, Large” value [3, 13] was 0. The “Plant response rating, Crabgrass, Large” value [3, 14] was 0, the “Plant response rating, Morningglory” value [4, 11] was 90 and the “Plant response rating, Morningglory” value [4, 12] was 90. For the same compound, the “Plant response rating, Morningglory” value [4, 13] was 0, the “Plant response rating, Morningglory” value [4, 14] was 10 and the “Plant response rating, Pigweed” value [5, 11] was 100. The “Plant response rating, Pigweed” value [5, 12] was 100, the “Plant response rating, Pigweed” value [5, 13] was 90 and the “Plant response rating, Pigweed” value [5, 14] was 100. For the same compound, the “Plant response rating, Velvetleaf” value [6, 11] was 70, the “Plant response rating, Velvetleaf” value [6, 12] was 100 and the “Plant response rating, Velvetleaf” value [6, 13] was 0. For the same compound, the “Plant response rating, Velvetleaf” value [6, 14] was 40, the “Plant response rating, Wheat” value [7, 11] was 0 and the “Plant response rating, Wheat” value [7, 12] was 0. For the same compound, the “Plant response rating, Wheat” value [7, 13] was 0, the “Plant response rating, Wheat” value [7, 14] was 0 and the “Plant response rating, Flood, Barnyardgrass” value [8] was 0. The “Plant response rating, Barnyardgrass” value [8, 15] was 0, the “Plant response rating, Barnyardgrass” value [8, 16] was 0 and the “Barnyardgrass plant response rating” value [8, 17] was 0. For the same compound, the “Plant response rating, Flood, Ducksalad” value [9] was 20, the “Plant response rating, Ducksalad” value [9, 15] was 0 and the “Plant response rating, Ducksalad” value [9, 16] was 0. The “Ducksalad plant response rating” value [9, 17] was 0, the “Plant response rating, Flood, Rice” value (rice (Oryza sativa)) was 0 and the “Plant response rating, Rice” value (rice (Oryza sativa); [15]) was 0. For the same compound, the “Plant response rating, Rice” value (rice (Oryza sativa); [16]) was 0, the “Rice plant response rating” value (rice (Oryza sativa); [17]) was 0 and the “Plant response rating, Flood, Sedge, Umbrella” value [10] was 50. The “Plant response rating, Sedge, Umbrella” value [10, 15] was 0, the “Plant response rating, Sedge, Umbrella” value [10, 16] was 30 and the “Sedge, Umbrella plant response rating” value [10, 17] was 0.
In the case of `CCCCCCc1ncc(C(=O)C2=C(O)CCCC2=O)c(=O)n1-c1ccccc1` [Compound 54], the “Barnyardgrass plant response rating” value [1, 18] is reported as 10, the “Plant response rating, Barnyardgrass” value [1, 12] is reported as 60 and the “Plant response rating, Barnyardgrass” value [1, 13] is reported as 0. The “Plant response rating, Barnyardgrass” value [1, 14] was 10, the “Corn plant response rating” value (corn (Zea mays); [18]) was 0 and the “Plant response rating, Corn” value (corn (Zea mays); [12]) was 10. For the same compound, the “Plant response rating, Corn” value (corn (Zea mays); [13]) was 0, the “Plant response rating, Corn” value (corn (Zea mays); [14]) was 0 and the “Foxtail, Giant plant response rating” value [2, 18] was 10. For the same compound, the “Plant response rating, Foxtail, Giant” value [2, 12] was 60, the “Plant response rating, Foxtail, Giant” value [2, 13] was 0 and the “Plant response rating, Foxtail, Giant” value [2, 14] was 0. The “Crabgrass, Large plant response rating” value [3, 18] was 40, the “Plant response rating, Crabgrass, Large” value [3, 12] was 70 and the “Plant response rating, Crabgrass, Large” value [3, 13] was 0. The “Plant response rating, Crabgrass, Large” value [3, 14] was 30, the “Morningglory plant response rating” value [4, 18] was 40 and the “Plant response rating, Morningglory” value [4, 12] was 100. The “Plant response rating, Morningglory” value [4, 13] was 0, the “Plant response rating, Morningglory” value [4, 14] was 0 and the “Pigweed plant response rating” value [5, 18] was 100. The “Plant response rating, Pigweed” value [5, 12] was 100, the “Plant response rating, Pigweed” value [5, 13] was 80 and the “Plant response rating, Pigweed” value [5, 14] was 90. The “Velvetleaf plant response rating” value [6, 18] was 100, the “Plant response rating, Velvetleaf” value [6, 12] was 100 and the “Plant response rating, Velvetleaf” value [6, 13] was 60. For the same compound, the “Plant response rating, Velvetleaf” value [6, 14] was 70, the “Wheat plant response rating” value [7, 18] was 0 and the “Plant response rating, Wheat” value [7, 12] was 0. The “Plant response rating, Wheat” value [7, 13] was 0, the “Plant response rating, Wheat” value [7, 14] was 0 and the “Plant response rating, Flood, Barnyardgrass” value [8] was 0. For the same compound, the “Plant response rating, Barnyardgrass” value [8, 19] was 0, the “Plant response rating, Barnyardgrass” value [8, 15] was 0 and the “Plant response rating, Barnyardgrass” value [8, 16] was 0. The “Plant response rating, Flood, Ducksalad” value [9] was 40, the “Plant response rating, Ducksalad” value [9, 19] was 0 and the “Plant response rating, Ducksalad” value [9, 15] was 0. The “Plant response rating, Ducksalad” value [9, 16] was 30, the “Plant response rating, Flood, Rice” value (rice (Oryza sativa)) was 0 and the “Plant response rating, Rice” value (rice (Oryza sativa); [19]) was 0. For the same compound, the “Plant response rating, Rice” value (rice (Oryza sativa); [15]) was 0, the “Plant response rating, Rice” value (rice (Oryza sativa); [16]) was 0 and the “Plant response rating, Flood, Sedge, Umbrella” value [10] was 40. The “Plant response rating, Sedge, Umbrella” value [10, 19] was 0, the “Plant response rating, Sedge, Umbrella” value [10, 15] was 0 and the “Plant response rating, Sedge, Umbrella” value [10, 16] was 0.
